Data taken from ChEMBL document CHEMBL1157381, “Alkaloids from the Australian rainforest tree Ochrosia moorei” (J Nat Prod, 2008).
The source made the active and inactive calls. The rule behind the calls is not given here.

Experiments:
Format in all cases: cell-based
[1] = biological target: T1, Glucocorticoid receptor (Homo sapiens) (UniProt P04150); experiment: Inhibition of glucocorticoid receptor-glucocorticoid complex transfected in rat R1 cells assessed as down-regulation of TPA-responsive element proinflammatory gene expression at 10 uM after 24 hrs by beta-galactosidase assay
T1 sequence (whole entry): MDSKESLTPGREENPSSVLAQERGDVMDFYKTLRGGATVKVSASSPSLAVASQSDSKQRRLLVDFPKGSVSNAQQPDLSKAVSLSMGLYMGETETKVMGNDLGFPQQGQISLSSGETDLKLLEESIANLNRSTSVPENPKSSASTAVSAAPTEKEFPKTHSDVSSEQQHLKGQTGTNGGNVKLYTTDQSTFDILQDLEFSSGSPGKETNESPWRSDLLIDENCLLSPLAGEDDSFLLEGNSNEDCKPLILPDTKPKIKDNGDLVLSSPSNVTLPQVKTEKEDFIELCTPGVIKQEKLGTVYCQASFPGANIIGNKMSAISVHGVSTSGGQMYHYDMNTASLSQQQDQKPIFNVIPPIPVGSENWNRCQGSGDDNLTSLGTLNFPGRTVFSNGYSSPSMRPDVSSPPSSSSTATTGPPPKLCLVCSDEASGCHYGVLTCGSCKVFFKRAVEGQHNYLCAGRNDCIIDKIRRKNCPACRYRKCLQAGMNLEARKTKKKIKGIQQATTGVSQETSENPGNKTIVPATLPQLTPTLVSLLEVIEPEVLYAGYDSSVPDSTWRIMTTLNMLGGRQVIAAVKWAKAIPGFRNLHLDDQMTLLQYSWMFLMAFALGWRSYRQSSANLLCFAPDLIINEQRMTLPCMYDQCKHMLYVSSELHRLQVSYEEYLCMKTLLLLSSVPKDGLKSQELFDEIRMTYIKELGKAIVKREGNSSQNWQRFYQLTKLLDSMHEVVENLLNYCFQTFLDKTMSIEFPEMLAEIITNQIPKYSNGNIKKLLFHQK

Glucocorticoid receptor = biological target: T2, Glucocorticoid receptor (Homo sapiens, UniProt P04150); experiment: Inhibition of glucocorticoid receptor-glucocorticoid complex transfected in rat R1 cells assessed as down-regulation of TPA-responsive element proinflammatory gene expression after 24 hrs by beta-galactosidase assay
T2 sequence (P04150 whole entry): T1 sequence (whole entry)

R1 = experiment: Cytotoxicity against rat R1 cells at 100 uM after 24 hrs by neutral red assay; conditions: r1, 24 h
[2] = biological target: T1, Glucocorticoid receptor (Homo sapiens); experiment: Inhibition of glucocorticoid receptor-glucocorticoid complex transfected in rat R1 cells assessed as down-regulation of TPA-responsive element proinflammatory gene expression at 100 uM after 24 hrs by beta-galactosidase assay; design: scale not given: the % may be the effect or the level left

SMILES: CN1c2ccccc2[C@]23CCN4C=C(C(=O)CO)[C@H](C[C@H]42)C[C@H]13
- Activity [1]: inactive

SMILES: COc1ccc2[nH]c3c(C)c4ccncc4c(C)c3c2c1
- IC50 (Glucocorticoid receptor): 90 µM
- Activity (R1): Non-toxic

SMILES: C=C[C@H]1[C@H](O[C@H]2O[C@H](CO)[C@@H](O)[C@H](O)[C@H]2O)OC=C(C(=O)OC)[C@H]1Cc1nc(C(=O)O)cc2c1[nH]c1ccccc12
- Activity [2]: 30%

SMILES: CC(=O)C1=CN2CC[C@]34c5ccccc5N(C)[C@H]3C[C@H]1C[C@H]24
- Activity [1]: inactive

SMILES: C=C1c2[nH]c3ccccc3c2CN2CC[C@H]1/C(=C\C)C2
- Activity [2]: 54%

SMILES: Cc1c2ccncc2c(C)c2c1[nH]c1ccccc12 [ELLIPTECINE]
- IC50 (Glucocorticoid receptor): 90 µM
- Activity (R1): Non-toxic
